One compound from article PMC5473940, “SAF-A Regulates Interphase Chromosome Structure through Oligomerization with Chromatin-Associated RNAs” (Cell, 2017) can be followed below.

What all share (format): binding
Assay [1] has as its target T1, SAF-A AAA+ domain (His-tagged AAA+ fragment) (Homo sapiens, UniProt Q00839).
T1 construct: gene HNRNPU; AAA+ domain fragment, N-terminal 6xHis in pET32a, E. coli BL21(DE3); exact borders not in text (AAA domain modelled as aa 469-653)
The experiment in a line: intrinsic fluorescence quenching (ex […] nm, em […] nm).

Assay [2] deals with T2, SAF-A AAA+ domain (His-tagged AAA+ fragment) (Homo sapiens, UniProt Q00839, K510A, form not given).
T2 construct: gene HNRNPU; AAA+ domain fragment, N-terminal 6xHis in pET32a, E. coli BL21(DE3); exact borders not in text (AAA domain modelled as aa 469-653)
The description is as above. The conditions noted are these: pH 7.5, 37 °C, 10 mM MgCl2, 125 mM NaCl, 5 mM DTT; Walker A mutant.

The target of assay [3] is T3, FLAG-tagged full-length SAF-A (Homo sapiens, UniProt Q00839).
T3 construct: gene HNRNPU
The experiment in a line: stabilisation of immuno-purified oligomer, native PAGE western blot. Particulars: 1 mM nucleotide, 37 °C, 10 mM DTT to reverse cross-links. (In general: A western blot detects proteins with antibodies after separation by electrophoresis.)

The target in assay [4] is T4, SAF-A AAA+ domain (His-tagged AAA+ fragment) (Homo sapiens, UniProt Q00839, D580A, form not given).
T4 construct: gene HNRNPU; AAA+ domain fragment, N-terminal 6xHis in pET32a, E. coli BL21(DE3); exact borders not in text (AAA domain modelled as aa 469-653)
The experiment in a line: intrinsic fluorescence quenching (ex […] nm, em […] nm). The conditions noted are these: pH 7.5, 37 °C, 10 mM MgCl2, 125 mM NaCl, 5 mM DTT; Walker B mutant.

T1 sequence (Q00839 488-672 limits assumed): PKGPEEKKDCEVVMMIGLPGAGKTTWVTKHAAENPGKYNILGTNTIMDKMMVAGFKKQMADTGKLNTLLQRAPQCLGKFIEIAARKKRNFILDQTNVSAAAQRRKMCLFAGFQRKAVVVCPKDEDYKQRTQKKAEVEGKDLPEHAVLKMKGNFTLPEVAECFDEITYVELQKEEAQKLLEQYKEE
T4 sequence (Q00839 507-691 D580A limits assumed): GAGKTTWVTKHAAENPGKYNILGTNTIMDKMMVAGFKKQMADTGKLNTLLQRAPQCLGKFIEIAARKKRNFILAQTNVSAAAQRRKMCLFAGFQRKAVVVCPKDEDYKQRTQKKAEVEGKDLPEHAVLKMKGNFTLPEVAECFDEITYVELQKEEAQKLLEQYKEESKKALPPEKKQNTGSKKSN
T2 sequence (Q00839 507-691 K510A limits assumed): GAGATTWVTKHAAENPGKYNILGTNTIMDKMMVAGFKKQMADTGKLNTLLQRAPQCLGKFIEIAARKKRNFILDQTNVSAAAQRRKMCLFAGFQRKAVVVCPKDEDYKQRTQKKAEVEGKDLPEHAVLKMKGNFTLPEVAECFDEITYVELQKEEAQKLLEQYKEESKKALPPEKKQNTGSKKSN
T3 sequence (Q00839 2-806 isoform Q00839-2): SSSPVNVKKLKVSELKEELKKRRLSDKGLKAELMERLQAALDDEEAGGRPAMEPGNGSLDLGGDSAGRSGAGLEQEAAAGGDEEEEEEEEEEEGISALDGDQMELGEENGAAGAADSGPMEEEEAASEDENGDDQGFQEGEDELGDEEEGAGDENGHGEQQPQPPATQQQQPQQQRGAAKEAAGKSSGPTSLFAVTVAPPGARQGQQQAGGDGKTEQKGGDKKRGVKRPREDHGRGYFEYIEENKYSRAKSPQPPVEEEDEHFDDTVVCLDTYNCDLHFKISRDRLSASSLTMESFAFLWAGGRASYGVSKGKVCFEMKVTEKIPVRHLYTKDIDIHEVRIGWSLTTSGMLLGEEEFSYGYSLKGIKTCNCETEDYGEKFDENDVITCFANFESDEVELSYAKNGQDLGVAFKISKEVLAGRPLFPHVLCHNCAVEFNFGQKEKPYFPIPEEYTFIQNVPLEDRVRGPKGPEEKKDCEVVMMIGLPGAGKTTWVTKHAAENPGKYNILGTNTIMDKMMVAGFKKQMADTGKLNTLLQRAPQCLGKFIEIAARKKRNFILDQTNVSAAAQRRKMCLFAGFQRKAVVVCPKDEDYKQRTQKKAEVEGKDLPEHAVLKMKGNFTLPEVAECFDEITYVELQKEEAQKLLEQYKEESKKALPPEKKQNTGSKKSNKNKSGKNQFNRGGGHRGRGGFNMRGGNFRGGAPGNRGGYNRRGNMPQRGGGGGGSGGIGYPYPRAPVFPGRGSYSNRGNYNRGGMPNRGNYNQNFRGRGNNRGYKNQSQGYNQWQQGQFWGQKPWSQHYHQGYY

Turning to `Nc1ncnc2c1ncn2[C@@H]1O[C@H](COP(=O)(O)OP(=O)(O)OP(=O)(O)O)[C@@H](O)[C@H]1O` [ATP], the Kd (in general, the free concentration of one partner at which half of the binding sites on the other are occupied at equilibrium, for simple one-to-one binding) worked out at 38 µM in assay [1] and 29 µM in assay [4]. For the same compound, in assay [2], the “ATP binding abrogated (no binding)” value is on record as “Mutation of the Walker A motif abrogated ATP binding”. In assay [3], the “stabilisation of immuno-purified oligomer, native PAGE western blot” value is given as “ATP or ATPγS stabilized the oligomers”.
